Test results as given in US20240209053A1 (Protagonist Therapeutics, Inc., priority 2021, published 2024).
Numbered stars: 1 amine (or outer) side, 2 acyl side, 3 side chain; on linkers, the order of the positions; unused ones are H or OH. Bridge positions count the residues as written; N and C are the ends. Square brackets hold non-standard residues; d marks the D form. Side chains are listed from the residue outwards. Peptide text beside a SMILES is read from it. * marks the point of attachment. Dip = N[C@H](C(=O)O)C(c1ccccc1)c1ccccc1; Hag = O=C([C@H](CCC=[*:3])N[*:1])[*:2]; Palmitoyl = CCCCCCCCCCCCCCCC(=O)*; β3hF = N[C@H](CC(=O)O)Cc1ccccc1; NMeL = CN[C@@H](CC(C)C)C(=O)O; Isovaleryl = CC(C)CC(=O)*; Ahx = NCCCCCC(=O)O

Legend:
ferroportin = molecular target: T1, ferroportin (Homo sapiens, UniProt Q9NP59); experiment: T47D cell-based ferroportin internalization assay in presence of 0.5% mouse serum albumin (MSA); details: T47D cells
T1 sequence (Q9NP59 1-571): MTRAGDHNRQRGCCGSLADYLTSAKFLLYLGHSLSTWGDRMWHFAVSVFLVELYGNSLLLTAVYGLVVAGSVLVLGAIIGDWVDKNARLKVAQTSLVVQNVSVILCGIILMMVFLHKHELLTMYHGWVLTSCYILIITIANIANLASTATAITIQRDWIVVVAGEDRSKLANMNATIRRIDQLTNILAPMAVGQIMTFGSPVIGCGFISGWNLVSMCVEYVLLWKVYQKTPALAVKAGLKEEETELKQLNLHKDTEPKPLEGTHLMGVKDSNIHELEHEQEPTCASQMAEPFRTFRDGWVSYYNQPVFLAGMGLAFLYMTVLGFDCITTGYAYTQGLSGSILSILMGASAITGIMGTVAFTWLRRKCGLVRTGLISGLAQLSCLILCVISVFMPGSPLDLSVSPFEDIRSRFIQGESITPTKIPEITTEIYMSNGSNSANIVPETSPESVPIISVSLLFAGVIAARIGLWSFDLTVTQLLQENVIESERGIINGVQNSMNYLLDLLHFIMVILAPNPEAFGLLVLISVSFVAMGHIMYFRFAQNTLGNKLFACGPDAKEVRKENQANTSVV
Method: The potency of the peptides in causing ferroportin internalization was evaluated in a T47D cell-based assay. […] In this internalization assay, the potency of the test peptides was evaluated in presence of serum albumin which is the main protein component in the blood. T47D cells were maintained in RPMI media (containing required amount of fetal bovine serum) and regularly sub-cultured. In preparation for the assay, the cells were seeded in 96-well plates at a density of 80-100 k cells per well in 100 ul volume and allowed to rest overnight. On the next day, test peptides were first prepared in dilution series (10-point series, starting concentration of ˜5 μM, typically 3-4×fold dilution steps), all with 0.5% mouse serum albumin (MSA purified from mouse serum; Sigma, A3139). The test peptide dilution series were allowed to incubate at room temperature for 30 min. Then the media was aspirated from the 96-well cell plate and test peptide dilution series were added. After 1 hr incubation, the media with test peptides was aspirated out and AF647-conjugated detection peptide was added at fixed concentration of 200 nM. The AF647-conjugated detection peptide was previously verified to bind to ferroportin and cause its internalization. The cells were washed again after a 2 hr incubation in preparation for flow cytometry analysis. The Median Fluorescence Intensity (MFI) of the AF647-positive population was measured (after removing dead cells and non-singlets from the analysis). The MFI values were used to generate a dose-response curve and obtain IC50 potencies for the test peptides. The IC50 potencies were calculated by using 4-parameter non-linear fitting function in Graphpad Prism (Table 6A).

[1] = molecular target: T2, human ferroportin (SLC40A1) (Homo sapiens, UniProt Q9NP59); experiment: FPN activity assay: internalization/degradation of ferroportin-GFP in stably transfected HEK293 cells (decrease in GFP fluorescence); assay type: cell-based; details: compound incubated at least 18 hours
T2 sequence (Q9NP59 1-571): T1 sequence (Q9NP59 1-571)
How it was run: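 HEK293 cells stably expressing human ferroportin C-terminally fused to GFP were exposed to peptides for at least 18 h, at most 24 h. Internalization/degradation read as loss of GFP fluorescence; EC50 derived. Retro-inverse mini-hepcidin peptides used as control standards.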

SMILES	IC50 (ferroportin) [nM]	IC50 [1] [nM]
CCCCCCCCCCCCCCCC(=O)NCCCCCC(=O)NCCCC[C@H](NC(=O)C[C@H](Cc1ccccc1)NC(=O)[C@@H]1CCC=CCC[C@H](NC(=O)CC(C)C)C(=O)N(C)[C@@H]([C@@H](C)O)C(=O)N[C@@H](Cc2c[nH]cn2)C(=O)N[C@@H](C(c2ccccc2)c2ccccc2)C(=O)N2CCC[C@H]2C(=O)N[C@@H](C)C(=O)N[C@@H]([C@@H](C)CC)C(=O)N1)C(=O)N[C@H](CCCCN)C(N)=O [Compd 49]	100 to 500	10 to 100
CCCCCCCCCCCCCCCC(=O)NCCCCCC(=O)NCCCC[C@H](NC(=O)C[C@H](Cc1ccccc1)NC(=O)[C@@H]1CCC=CCC[C@H](NC(=O)CC(C)C)C(=O)N[C@@H]([C@@H](C)O)C(=O)N[C@@H](Cc2c[nH]cn2)C(=O)N[C@@H](C(c2ccccc2)c2ccccc2)C(=O)N2CCC[C@H]2C(=O)N(C)[C@@H](C)C(=O)N[C@@H]([C@@H](C)CC)C(=O)N1)C(=O)N[C@H](CCCCN)C(N)=O [Compd 52]	10 to 100	10 to 100
CCCCCCCCCCCCCCCC(=O)NCCCCCC(=O)NCCCC[C@H](NC(=O)[C@H](Cc1ccccc1)N(C)C(=O)[C@@H]1CCC=CCC[C@H](NC(=O)CC(C)C)C(=O)N[C@@H]([C@@H](C)O)C(=O)N[C@@H](Cc2c[nH]cn2)C(=O)N[C@@H](C(c2ccccc2)c2ccccc2)C(=O)N2CCC[C@H]2C(=O)N[C@@H](C)C(=O)N[C@@H]([C@@H](C)CC)C(=O)N1)C(=O)N[C@H](CCCCN)C(N)=O [Compd 54]	100 to 500	10 to 100
CCCCCCCCCCCCCCCC(=O)NCCCCCC(=O)NCCCC[C@H](NC(=O)C[C@H](Cc1ccccc1)NC(=O)[C@@H]1CCC=CCC[C@H](NC(=O)CC(C)C)C(=O)N[C@@H]([C@@H](C)O)C(=O)N[C@@H](Cc2c[nH]cn2)C(=O)N[C@@H](C(c2ccccc2)c2ccccc2)C(=O)N2CCC[C@H]2C(=O)N[C@@H](C)C(=O)N[C@@H]([C@@H](C)CC)C(=O)N1)C(=O)N(C)[C@H](CCCCN)C(N)=O [Compd 56]	10 to 100	1 to 10

More lines, now with the values ahead:

IC50 (ferroportin) [nM]	IC50 [1] [nM]	SMILES
10 to 100	10 to 100	CCCCCCCCCCCCCCCC(=O)NCCCCCC(=O)NCCCC[C@H](NC(=O)C[C@H](Cc1ccccc1)NC(=O)[C@@H]1CCC=CCC[C@H](NC(=O)CC(C)C)C(=O)N[C@@H]([C@@H](C)O)C(=O)N[C@@H](Cc2c[nH]cn2)C(=O)N[C@@H](C(c2ccccc2)c2ccccc2)C(=O)N2CCC[C@H]2C(=O)N[C@@H](C)C(=O)N[C@@H]([C@@H](C)CC)C(=O)N1)C(=O)N[C@@H](C)C(N)=O [Compd 48] (Isovaleryl-[Hag]TH[Dip]PAI[Hag][β3hF]K([Ahx-Palmitoyl])A-NH2; staple 1-8)
10 to 100	100 to 500	CCCCCCCCCCCCCCCC(=O)NCCCCCC(=O)NCCCC[C@H](NC(=O)C[C@H](Cc1ccccc1)NC(=O)[C@@H]1CCC=CCC[C@H](NC(=O)CC(C)C)C(=O)N[C@@H]([C@@H](C)O)C(=O)N[C@@H](Cc2c[nH]cn2)C(=O)N[C@@H](C(c2ccccc2)c2ccccc2)C(=O)N2CCC[C@H]2C(=O)N[C@@H](C)C(=O)N(C)[C@@H](CC(C)C)C(=O)N1)C(=O)N[C@H](CCCCN)C(N)=O [Compd 53] (Isovaleryl-[Hag]TH[Dip]PA[NMeL][Hag][β3hF]K([Ahx-Palmitoyl])[dK]-NH2; staple 1-8)
10 to 100	1 to 10	CCCCCCCCCCCCCCCC(=O)NCCCCCC(=O)NCCCC[C@@H](C(=O)N[C@H](CCCCN)C(N)=O)N(C)C(=O)C[C@H](Cc1ccccc1)NC(=O)[C@@H]1CCC=CCC[C@H](NC(=O)CC(C)C)C(=O)N[C@@H]([C@@H](C)O)C(=O)N[C@@H](Cc2c[nH]cn2)C(=O)N[C@@H](C(c2ccccc2)c2ccccc2)C(=O)N2CCC[C@H]2C(=O)N[C@@H](C)C(=O)N[C@@H]([C@@H](C)CC)C(=O)N1 [Compd 55]
